The source made the active and inactive calls.

What is called IC50 is the concentration that inhibits the measured activity by half. What is called Kd is a measure of binding affinity in units of concentration. The EC50 is the midpoint of the concentration-response curve.

Test [1] concerns the target Eukaryotic translation initiation factor 4H (Homo sapiens, UniProt Q15056). As to the kind of experiment: human eIF4H binding inhibitors, primary screen, translation initiation inhibitor project, biochemical, uHTS, fluorescence polarization (AID 2012). A general note: In fluorescence polarisation assays a small probe gives low polarisation when free and higher when bound to something large.

The target in test [2] is T1, Mannose-6-phosphate isomerase (Homo sapiens, UniProt P34949).
T1 sequence (P34949 whole entry): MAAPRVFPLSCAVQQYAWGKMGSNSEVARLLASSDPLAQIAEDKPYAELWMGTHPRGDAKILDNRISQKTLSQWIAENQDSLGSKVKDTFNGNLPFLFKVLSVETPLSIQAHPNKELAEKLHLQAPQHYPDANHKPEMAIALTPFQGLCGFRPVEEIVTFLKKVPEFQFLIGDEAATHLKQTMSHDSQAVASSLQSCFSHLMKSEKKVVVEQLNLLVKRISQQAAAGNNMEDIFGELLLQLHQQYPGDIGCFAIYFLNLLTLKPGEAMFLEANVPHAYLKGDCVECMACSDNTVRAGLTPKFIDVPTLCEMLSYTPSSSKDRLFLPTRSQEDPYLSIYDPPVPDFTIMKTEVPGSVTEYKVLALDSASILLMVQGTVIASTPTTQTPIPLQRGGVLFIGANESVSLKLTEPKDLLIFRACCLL
Briefly: human PMI inhibitors, high substrate, primary screen, biochemical, fluorescence intensity, high mannose 6-phosphate (AID 1220).

The target in test [3] is Polyadenylate-binding protein 1 (Homo sapiens, UniProt P11940). Briefly: PABP poly(A) RNA binding inhibitors, primary screen, biochemical, fluorescence polarization, uHTS (AID 2014).
Test [4] concerns the target Cytochrome P450 2C9 (Homo sapiens, UniProt P11712). As to conditions: Potency.
In test [5] the target is Neuropeptides B/W receptor type 1 (Homo sapiens, UniProt P48145). As to the kind of experiment: Fluorescence-based dose response cell-based high throughput screening assay to identify antagonists of the G-protein coupled receptor 7 (GPR7). [Related pubchem assays: 1952 (Screening assay (GPR7 antagonists).), 1880 (Summary AID.)]. In kind it is functional.
For test [6], the target named is T2, Neuropeptide Y receptor type 2 (Homo sapiens, UniProt P49146).
T2 sequence (P49146 whole entry): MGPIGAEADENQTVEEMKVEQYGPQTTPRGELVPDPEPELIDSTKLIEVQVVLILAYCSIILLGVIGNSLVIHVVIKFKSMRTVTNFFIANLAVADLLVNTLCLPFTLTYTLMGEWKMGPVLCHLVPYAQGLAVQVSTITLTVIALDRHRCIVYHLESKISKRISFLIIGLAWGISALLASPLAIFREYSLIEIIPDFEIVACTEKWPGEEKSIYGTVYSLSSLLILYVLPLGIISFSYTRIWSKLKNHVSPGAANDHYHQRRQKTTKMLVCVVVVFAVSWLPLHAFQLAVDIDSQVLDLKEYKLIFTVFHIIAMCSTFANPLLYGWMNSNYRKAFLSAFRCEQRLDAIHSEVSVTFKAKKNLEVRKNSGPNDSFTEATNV
Briefly: NPY-Y2 antagonist potency, selectivity check, dose response, counter-screen for NPY-Y1 antagonist project, cell-based (AID 1278). Type of test: functional. On the technique in general: The purpose of a counterscreen is to sort out artefacts and off-target activity.

In test [7] the target is Melanin-concentrating hormone receptor 1 (Homo sapiens, UniProt Q99705). As to the kind of experiment: Fluorescence-based counterscreen for antagonists of the G-protein coupled receptor 7 (GPR7): cell-based high throughput dose response assay to identify antagonists of the melanin-concentrating hormone receptor 1 (MCHR1). Type of test: functional.
Test [8] deals with T3, Neuropeptide Y receptor type 1 (Homo sapiens, UniProt P25929).
T3 sequence (P25929 whole entry): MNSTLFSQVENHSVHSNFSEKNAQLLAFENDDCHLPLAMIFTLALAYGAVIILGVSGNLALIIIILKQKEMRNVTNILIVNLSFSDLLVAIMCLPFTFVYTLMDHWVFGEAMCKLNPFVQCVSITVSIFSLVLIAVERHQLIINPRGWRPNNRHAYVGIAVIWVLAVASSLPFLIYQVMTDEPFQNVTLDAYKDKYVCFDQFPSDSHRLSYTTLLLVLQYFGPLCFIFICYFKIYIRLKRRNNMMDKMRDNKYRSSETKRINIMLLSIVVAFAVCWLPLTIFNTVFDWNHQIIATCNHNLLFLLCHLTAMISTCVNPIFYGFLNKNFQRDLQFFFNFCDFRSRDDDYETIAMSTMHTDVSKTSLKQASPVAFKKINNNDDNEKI
Briefly: NPY-Y1 receptor antagonist potency, dose response, cell-based (AID 1277). In kind it is functional.

For test [9], the system named is INS1. Briefly: beta cell apoptosis inhibitors, cytokine rescue, dose response, luminescence, retest (AID 449756).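 Note: cell death triggered by IL-1 beta plus TNF-alpha plus IFN-gamma mixture; protective hits raise ATP signal compared with cytokine alone wells.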 Type of test: functional, cell-based. The conditions noted are these: Rattus norvegicus, INS1.
Test [10] deals with Cytochrome P450 2D6 (Homo sapiens, UniProt P10635). As to the kind of experiment: qHTS Assay for Inhibitors and Substrates of Cytochrome P450 2D6. [Related pubchem assays: 410 ]. Type of test: ADME. The conditions noted are these: read-out: Potency. A general note: qHTS replaces the single test concentration by a dilution series.
Test [11] concerns the target Chaperone protein dnaK (Escherichia coli, UniProt C3TRK2). Briefly: DnaK beta-domain binding affinity, SAR follow-up, orthogonal assay for DnaK modulator project, biophysical, isothermal titration calorimetry, full-length DnaK (AID 1495).
Test [12] has as its target T4, Alkaline phosphatase, tissue-nonspecific isozyme (Homo sapiens, UniProt P05186).
T4 sequence (P05186 whole entry): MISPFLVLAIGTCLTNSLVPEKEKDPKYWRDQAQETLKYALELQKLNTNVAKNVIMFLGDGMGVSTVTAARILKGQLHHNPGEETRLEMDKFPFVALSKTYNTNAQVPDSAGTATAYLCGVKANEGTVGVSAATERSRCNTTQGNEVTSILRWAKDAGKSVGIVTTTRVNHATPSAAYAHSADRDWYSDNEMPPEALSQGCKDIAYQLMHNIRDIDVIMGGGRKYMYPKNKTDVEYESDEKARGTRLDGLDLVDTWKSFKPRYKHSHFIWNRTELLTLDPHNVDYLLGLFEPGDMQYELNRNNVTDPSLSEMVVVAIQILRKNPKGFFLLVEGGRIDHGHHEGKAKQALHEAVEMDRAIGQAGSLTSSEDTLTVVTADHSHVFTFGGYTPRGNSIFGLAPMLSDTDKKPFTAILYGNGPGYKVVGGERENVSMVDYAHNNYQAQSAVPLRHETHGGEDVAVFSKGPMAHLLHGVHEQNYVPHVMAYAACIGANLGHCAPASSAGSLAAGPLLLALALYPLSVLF

Test [13] can be described thus: cytotoxicity in HPDE-C7 cells, cell-based, fluorescence, HTS (AID 430). Type of test: functional. The conditions noted are these: Homo sapiens.
The nature of test [14]: cytotoxicity in KRAS-transformed pancreatic duct cells, primary screen, cell-based, fluorescence, HTS (AID 431).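 Note: cell line used: HPDE-C7K.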 As to conditions: Homo sapiens. Type of test: functional.
The nature of test [15]: Luminescence Cell-Based Dose Retest to Confirm Inhibitors of Cancer Stem Cells. [Related pubchem assays (depositor defined):AID2717, AID2721]. Type of test: functional. As to conditions: Homo sapiens.
Test [16] addresses T5, Methionyl-tRNA synthetase, putative (Trypanosoma brucei brucei, UniProt Q38C91).
T5 sequence (Q38C91 whole entry): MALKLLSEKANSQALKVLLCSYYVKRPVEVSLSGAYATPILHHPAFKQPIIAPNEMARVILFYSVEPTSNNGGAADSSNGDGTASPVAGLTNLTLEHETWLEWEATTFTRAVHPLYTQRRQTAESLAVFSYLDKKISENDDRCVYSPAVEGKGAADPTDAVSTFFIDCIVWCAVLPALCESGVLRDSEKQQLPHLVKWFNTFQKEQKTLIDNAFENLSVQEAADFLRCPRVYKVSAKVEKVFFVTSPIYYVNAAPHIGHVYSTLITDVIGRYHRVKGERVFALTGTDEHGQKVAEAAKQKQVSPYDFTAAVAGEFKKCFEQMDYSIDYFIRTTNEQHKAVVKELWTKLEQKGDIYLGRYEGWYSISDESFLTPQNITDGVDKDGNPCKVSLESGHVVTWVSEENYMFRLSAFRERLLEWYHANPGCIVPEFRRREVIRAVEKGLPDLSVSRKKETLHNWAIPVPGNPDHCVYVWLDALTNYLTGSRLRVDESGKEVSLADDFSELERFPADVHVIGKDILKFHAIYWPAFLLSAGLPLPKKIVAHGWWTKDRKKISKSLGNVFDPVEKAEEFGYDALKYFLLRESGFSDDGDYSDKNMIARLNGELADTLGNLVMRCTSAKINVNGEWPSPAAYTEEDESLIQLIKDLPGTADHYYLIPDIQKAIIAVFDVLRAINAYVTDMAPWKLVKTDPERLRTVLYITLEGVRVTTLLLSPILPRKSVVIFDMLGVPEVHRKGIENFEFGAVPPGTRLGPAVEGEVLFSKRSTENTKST
Type of test: functional, Trypanosoma brucei brucei strain 927/4 GUTat10.1.

Test [17] is described as follows: Counterscreen for inhibitors of Trypanosoma brucei methionyl tRNA synthetase (MetRS): Luminescence-based cell-based high throughput dose response assay to identify compounds that are cytotoxic to Jurkat human T lymphocyte cells. In kind it is functional. The conditions noted are these: jurkat.
In test [18] the target is T5, Methionyl-tRNA synthetase, putative. Type of test: functional, Trypanosoma brucei brucei strain 927/4 GUTat10.1. The source holds these as a separate data set.

Chain of Cytochrome P450 2C9 (P11712 whole entry): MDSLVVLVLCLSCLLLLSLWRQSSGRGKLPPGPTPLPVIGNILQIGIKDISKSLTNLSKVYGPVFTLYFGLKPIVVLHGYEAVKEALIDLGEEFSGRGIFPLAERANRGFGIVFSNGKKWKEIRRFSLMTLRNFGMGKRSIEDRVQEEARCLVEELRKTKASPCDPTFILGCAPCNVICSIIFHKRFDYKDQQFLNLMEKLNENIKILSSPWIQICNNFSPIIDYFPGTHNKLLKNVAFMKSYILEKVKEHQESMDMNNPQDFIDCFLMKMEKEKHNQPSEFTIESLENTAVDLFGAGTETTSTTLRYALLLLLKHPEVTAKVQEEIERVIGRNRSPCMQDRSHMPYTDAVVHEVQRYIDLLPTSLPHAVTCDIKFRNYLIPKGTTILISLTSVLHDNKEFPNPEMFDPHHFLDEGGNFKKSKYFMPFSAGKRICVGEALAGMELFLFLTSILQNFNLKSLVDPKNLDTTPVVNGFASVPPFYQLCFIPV
Chain of Neuropeptides B/W receptor type 1 (P48145 whole entry): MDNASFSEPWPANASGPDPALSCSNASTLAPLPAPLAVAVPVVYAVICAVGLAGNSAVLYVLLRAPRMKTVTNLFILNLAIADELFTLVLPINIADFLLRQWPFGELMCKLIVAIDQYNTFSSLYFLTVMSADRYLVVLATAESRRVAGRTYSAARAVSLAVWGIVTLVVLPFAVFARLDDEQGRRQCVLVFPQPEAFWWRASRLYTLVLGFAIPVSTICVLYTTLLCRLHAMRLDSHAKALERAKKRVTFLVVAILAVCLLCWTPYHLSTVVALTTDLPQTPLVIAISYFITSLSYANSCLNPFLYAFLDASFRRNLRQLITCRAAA
Chain of Polyadenylate-binding protein 1 (P11940 whole entry): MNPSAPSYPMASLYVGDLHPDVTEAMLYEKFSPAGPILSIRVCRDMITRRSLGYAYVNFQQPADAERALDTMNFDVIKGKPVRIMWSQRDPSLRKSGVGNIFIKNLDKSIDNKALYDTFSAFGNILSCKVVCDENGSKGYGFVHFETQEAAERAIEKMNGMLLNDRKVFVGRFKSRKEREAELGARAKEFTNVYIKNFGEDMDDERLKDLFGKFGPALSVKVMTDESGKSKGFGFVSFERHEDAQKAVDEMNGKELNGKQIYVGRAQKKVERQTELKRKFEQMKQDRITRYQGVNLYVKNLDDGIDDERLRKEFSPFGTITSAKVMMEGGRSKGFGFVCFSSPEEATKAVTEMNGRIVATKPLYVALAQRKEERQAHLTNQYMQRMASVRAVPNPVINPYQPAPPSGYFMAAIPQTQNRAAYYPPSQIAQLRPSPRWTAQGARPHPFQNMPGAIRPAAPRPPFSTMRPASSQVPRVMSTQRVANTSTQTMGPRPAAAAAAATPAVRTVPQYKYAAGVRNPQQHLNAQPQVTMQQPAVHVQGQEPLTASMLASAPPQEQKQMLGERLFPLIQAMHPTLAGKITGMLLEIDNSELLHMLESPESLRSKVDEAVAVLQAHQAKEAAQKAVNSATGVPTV
Chain of Melanin-concentrating hormone receptor 1 (Q99705 whole entry): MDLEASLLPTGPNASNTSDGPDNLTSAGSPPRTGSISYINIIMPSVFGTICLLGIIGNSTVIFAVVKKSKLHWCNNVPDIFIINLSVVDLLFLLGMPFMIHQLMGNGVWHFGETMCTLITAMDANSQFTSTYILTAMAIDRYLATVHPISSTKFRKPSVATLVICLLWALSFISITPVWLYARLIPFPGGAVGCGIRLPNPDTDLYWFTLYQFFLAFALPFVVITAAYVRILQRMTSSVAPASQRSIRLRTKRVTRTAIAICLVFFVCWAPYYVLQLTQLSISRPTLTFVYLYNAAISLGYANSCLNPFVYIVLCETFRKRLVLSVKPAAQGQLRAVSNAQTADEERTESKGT
Chain of Chaperone protein dnaK (C3TRK2 whole entry): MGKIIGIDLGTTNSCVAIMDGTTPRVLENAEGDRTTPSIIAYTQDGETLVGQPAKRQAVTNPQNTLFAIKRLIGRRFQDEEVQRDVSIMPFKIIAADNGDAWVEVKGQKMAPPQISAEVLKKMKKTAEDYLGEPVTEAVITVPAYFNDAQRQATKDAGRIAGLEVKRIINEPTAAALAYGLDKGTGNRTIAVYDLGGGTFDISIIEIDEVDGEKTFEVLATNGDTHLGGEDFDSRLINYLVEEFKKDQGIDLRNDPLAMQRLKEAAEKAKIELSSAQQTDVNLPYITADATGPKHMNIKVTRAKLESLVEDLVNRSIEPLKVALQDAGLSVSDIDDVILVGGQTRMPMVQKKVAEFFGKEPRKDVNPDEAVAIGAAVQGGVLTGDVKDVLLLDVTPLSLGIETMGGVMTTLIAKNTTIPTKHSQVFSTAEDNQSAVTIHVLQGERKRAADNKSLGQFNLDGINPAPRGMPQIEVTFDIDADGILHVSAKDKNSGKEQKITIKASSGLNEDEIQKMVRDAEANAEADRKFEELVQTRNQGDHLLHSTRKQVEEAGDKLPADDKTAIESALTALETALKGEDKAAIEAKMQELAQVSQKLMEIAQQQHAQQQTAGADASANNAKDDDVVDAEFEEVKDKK
Chain of Cytochrome P450 2D6 (P10635 whole entry): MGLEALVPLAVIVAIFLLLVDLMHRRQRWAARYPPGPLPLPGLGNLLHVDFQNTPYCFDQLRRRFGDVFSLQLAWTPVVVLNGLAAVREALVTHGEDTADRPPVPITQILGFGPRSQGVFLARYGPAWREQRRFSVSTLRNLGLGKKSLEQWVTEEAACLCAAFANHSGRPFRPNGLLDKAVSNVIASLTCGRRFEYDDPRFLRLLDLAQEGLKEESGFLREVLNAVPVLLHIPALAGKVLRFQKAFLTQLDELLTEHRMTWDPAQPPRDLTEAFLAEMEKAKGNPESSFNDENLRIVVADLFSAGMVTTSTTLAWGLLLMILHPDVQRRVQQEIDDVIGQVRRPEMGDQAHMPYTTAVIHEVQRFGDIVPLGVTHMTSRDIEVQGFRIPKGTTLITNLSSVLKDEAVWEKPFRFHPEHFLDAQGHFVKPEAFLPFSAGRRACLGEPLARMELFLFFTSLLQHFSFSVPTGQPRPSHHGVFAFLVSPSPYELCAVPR

Consider `COc1ccc(C(=O)C[N+]2(C)CCOCC2)cc1`, for which the figures for the IC50 in test [1], in test [2] and in [3] were > 100 µM (inactive), > 50 µM (not active) and 4.41 µM (active), respectively.
On to `CC(C)C[C@@H](CC(=O)N[C@@H](CCC(=O)O)CC(=O)O)NC(=O)[C@@H]1CCCC[C@H]1NC(=O)C[C@H](CCCN)NC(=O)C[C@H](CO)NC(=O)[C@@H]1CNCC[C@H]1N`, for which, in test [4], the AC50 is 31.6 µM (inconclusive).
Turning to `Cc1ccc(C(=O)C[n+]2cc(-c3ccccc3)n3c2CCCCC3)cc1`, the half-maximal inhibitory concentration (IC50) is 31.2 µM (not active) in test [5], 8.01 µM (active) in [6], > 14.6 µM (not active) in [7] and 6.06 µM (active) in test [8]. The AC50 in [9] is 4.71 µM (active).
As to `COc1cc(C(=O)O[C@@H]2CC(C)=CC[C@@]3(C)CC[C@](O)(C(C)C)[C@H]23)ccc1O`, in test [10], the AC50 is 31.6 µM (inconclusive).
As for `O=C(NCc1c(Cl)cccc1Cl)c1cccs1`, in test [11], the Kd was 1.5 µM (active).
As to `Clc1ccc(COC(Cn2ccnc2)c2ccc(Cl)cc2Cl)c(Cl)c1` (stereo not drawn) [MICONAZOLE NITRATE], the figures for the EC50 in test [12], in test [13] and in test [14] were 70.6 µM (not active), 8.19 µM (active) and 7.45 µM (active), respectively. Also, the AC50 in test [15] was 6.36 µM (active). Further, the IC50 in [16] was 11 µM (inactive); in test [17], 28.1 µM (inactive); in [18] it was 13.2 µM (inactive).

Source of the values: ChEMBL document CHEMBL1201862, “PubChem BioAssay data set” (2004).
